# Laboratory results published in patent publication US9833497B2, “Human originated EGF domain proteins and use of the same” (CHENGDU SOURCEBIO LIMITED-LIABILITY COMPANY, priority 2013, dated 2017).
# Key:
# Type in all cases: cell-based
# E. coli DH5α = experiment: Antibacterial activity: MIC and growth curve against E. coli DH5α in 96-well plate; details: minimal inhibitory concentration against E. coli DH5α; 96-well plate, 5×10^5 CFU/mL, 37° C., judged after 8 h
# Method in brief: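 Log-phase DH5α (OD600 about 0.5, 37° C, 185 rpm in LB) was pelleted, resuspended in fresh LB and seeded at 5×10^5 CFU/mL with recombinant protein at 50, 25 and 12.5 μg/mL (two-fold series), in triplicate. Plates were shaken at 175 rpm, 37° C, and OD600 was read every 30 min. MIC was the lowest concentration with no growth.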
# E. coli BL21 = experiment: MIC against Gram-negative bacteria: E. coli BL21; details: 10 h cultivation at 37° C., 5×10^5 CFU/mL, two-fold serial dilution
# Method in brief: (§1)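 Two-fold serial dilutions of each purified human EGF domain protein, three replicate wells per level, were combined with bacteria at a final 5×10^5 CFU/mL in LB. Cultures were shaken at 175 rpm, 37° C. The MIC was taken as the minimum concentration preventing growth.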
# Pseudomonas aeruginosa = experiment: MIC against Gram-negative bacteria: Pseudomonas aeruginosa; details: 10 h cultivation at 37° C., 5×10^5 CFU/mL, two-fold serial dilution
# Method in brief: as §1
# Klebsiella pneumonia = experiment: MIC against Gram-negative bacteria: Klebsiella pneumonia; details: 10 h cultivation at 37° C., 5×10^5 CFU/mL, two-fold serial dilution
# Method in brief: as §1
# Enterobacter cloacae = experiment: MIC against Gram-negative bacteria: Enterobacter cloacae; details: 10 h cultivation at 37° C., 5×10^5 CFU/mL, two-fold serial dilution
# Method in brief: as §1
# Aeromonas hydrophila = experiment: MIC against Gram-negative bacteria: Aeromonas hydrophila; details: 10 h cultivation at 37° C., 5×10^5 CFU/mL, two-fold serial dilution
# Method in brief: as §1
# Citrobacter diversus = experiment: MIC against Gram-negative bacteria: Citrobacter diversus; details: 10 h cultivation at 37° C., 5×10^5 CFU/mL, two-fold serial dilution
# Method in brief: as §1
# Moraxella catarrhalis = experiment: MIC against Gram-negative bacteria: Moraxella catarrhalis; details: 10 h cultivation at 37° C., 5×10^5 CFU/mL, two-fold serial dilution
# Method in brief: as §1
# Proteus mirabilis = experiment: MIC against Gram-negative bacteria: Proteus mirabilis; details: 10 h cultivation at 37° C., 5×10^5 CFU/mL, two-fold serial dilution
# Method in brief: as §1
# Proteus vulgaris = experiment: MIC against Gram-negative bacteria: Proteus vulgaris; details: 10 h cultivation at 37° C., 5×10^5 CFU/mL, two-fold serial dilution
# Method in brief: as §1
# Serratia marcescens = experiment: MIC against Gram-negative bacteria: Serratia marcescens; details: 10 h cultivation at 37° C., 5×10^5 CFU/mL, two-fold serial dilution
# Method in brief: as §1
Substance,MIC (E. coli DH5α) [µg/mL],MIC E. coli BL21 (E. coli BL21) [µg/mL],MIC P. aeruginosa (Pseudomonas aeruginosa) [µg/mL],MIC K. pneumonia (Klebsiella pneumonia) [µg/mL],MIC E. cloacae (Enterobacter cloacae) [µg/mL],MIC A. hydrophila (Aeromonas hydrophila) [µg/mL],MIC C. diversus (Citrobacter diversus) [µg/mL],MIC M. catarrhalis (Moraxella catarrhalis) [µg/mL],MIC P. mirabilis (Proteus mirabilis) [µg/mL],MIC P. vulgaris (Proteus vulgaris) [µg/mL],MIC S. marcescens (Serratia marcescens) [µg/mL]
PRT1098 (DIDNCQSHQCANGATCISHTNGYSCLCFGNFTGKFCR; listed as Homo sapiens),12.5,12.5,12.5,12.5,12.5,25,12.5,25,12.5,25,50
PRT1099 (PSTVCGNEKTNLTCYNGGNCTEFQTELKCMCRPGFTGEWCE; listed as Homo sapiens),12.5,50,12.5,50,12.5,50,25,12.5,25,50,12.5
PRT1100 (DIDECASDPCVNGGLCQDLLNKFQCLCDVAFAGERCE; listed as Homo sapiens),12.5,25,100,25,12.5,100,12.5,12.5,12.5,25,12.5
PRT1101 (MKDPCFSNPCQGSATCVNTPGERSFLCKCPPGYSGTICE; listed as Homo sapiens),25,50,25,12.5,25,50,12.5,25,50,25,12.5
PRT1102 (TIGSCGKNSCQHGGICHQDPIYPVCICPAGYAGRFCE; listed as Homo sapiens),12.5,12.5,12.5,12.5,12.5,12.5,12.5,12.5,12.5,12.5,25
PRT1103 (DHDECASSPCQNGAVCQDGIDGYSCFCVPGYQGRHCD; listed as Homo sapiens),12.5,25,12.5,25,50,25,12.5,25,50,25,12.5
PRT1104 (EVDECASDPCKNEATCLNEIGRYTCICPHNYSGVNCE; listed as Homo sapiens),50,12.5,50,12.5,25,50,25,12.5,25,50,25
PRT1105 (EIDECWSQPCLNGATCQDALGAYFCDCAPGFLGDHCE; listed as Homo sapiens),12.5,25,50,12.5,50,25,12.5,25,50,12.5,50
